In patent US20260265316A1, “IMMUNOTHERAPEUTIC METHODS, COMPOUNDS, AND COMPOSITIONS FOR TREATING OR PREVENTING CELIAC DISEASE” (DBV Technologies, priority 2023, published 2026):

Experiments:
[1] = Procedure: Freeze-dried aliquots of the three gliadin polypeptide constructs Cv6, Av6, and 4K, as well as the four building blocks BB1, BB2a, BB3a, and BB4a were reconstituted in pure water, loaded on a PET-Ti backing film and dried in an oven (at ~30° C.). Immediately after drying, dry deposits were reconstituted at five different molarities (approximately 1.8, 0.91, 0.45, 0.091 or 0.045 mM) by pipetting up and down with either pure water (A), PBS 1× (B), or artificial perspiration (C). The concentration in soluble material was measured by HPLC at 215 nm from the solutions recovered from PET-Ti backing films. Data are median+interquartile range of the different molarities tested. Data are expressed as the percentage of soluble material recovered, based on the expected concentration (all values above 100% were set to 100).
Immediately after drying, dry deposits were reconstituted at five different concentrations (20, 10, 5, 1 and 0.5 mg/mL) by pipetting up and down with either pure water (A), PBS 1× (B), or artificial perspiration (C). The concentration in soluble material was measured by HPLC at 215 nm from the solutions recovered from PET-Ti backing films. Data are presented as median+interquartile range of the different molarities tested. Data are expressed as the percentage of soluble material recovered, based on the expected concentration (all values above 100% were set to 100). (D) As an illustration, photographs of the reconstitution of dry deposits with pure water are shown and annotated.
Immediately after drying, deposits were reconstituted by pipetting up and down with each of pure water, PBS 1× at pH 7.0, and artificial perspiration at pH 4.5, each at five different molarities (approximately 1.8, 0.91, 0.45, 0.091, and 0.045 mM). The concentration in soluble material was measured by HPLC at 215 nm.
Immediately after drying, patch deposits were reconstituted by pipetting up and down with each of pure water, PBS 1× at pH 7.0, and artificial perspiration at pH 4.5, at five different concentrations (20, 10, 5, 1, and 0.5 mg/mL). The concentration in soluble material was measured by HPLC at 215 nm.

[2] = Solubility upon drying on PET-Ti backing film and storage for 1 or 3 months at room temperature or 5° C.; assay type: physicochemical
Procedure: Backing films were stored for 1 month at room temperature (A, B, C) or 5° C. (D, E, F), away from light and humidity.
Backing films were stored for 3 months at room temperature (A, B, C) or 5° C. (D, E, F), away from light and humidity.
In order to evaluate their solubility upon deposition on a patch backing film and a period of storage, the three polypeptide constructs and the four individual building blocks were each dried on a PET-Ti backing film as described above. Backing films were stored at room temperature or 5° C. for 1 or 3 months.

[3] = stored at 5° C. for 1 month, PBS 1×
[4] = stored at 5° C. for 1 month, artificial perspiration
[5] = stored at 5° C. for 1 month, water
[6] = stored at 5° C. for 3 months, PBS 1×
[7] = stored at 5° C. for 3 months, artificial perspiration
[8] = stored at 5° C. for 3 months, water
[9] = stored at room temperature for 1 month, PBS 1×
[10] = stored at room temperature for 1 month, artificial perspiration
[11] = stored at room temperature for 1 month, water
[12] = stored at room temperature for 3 months, PBS 1×
[13] = stored at room temperature for 3 months, artificial perspiration
[14] = stored at room temperature for 3 months, water

Substance	median percentage of soluble material recovered from the patch backing film [1]	decrease in median percentage of soluble material recovered from the patch backing film compared to 4K [2, 3]	decrease in median percentage of soluble material recovered from the patch backing film compared to Av6 [2, 3]	decrease in median percentage of soluble material recovered from the patch backing film compared to Cv6 [2, 3]	decrease in median percentage of soluble material recovered from the patch backing film compared to 4K [2, 4]	decrease in median percentage of soluble material recovered from the patch backing film compared to Av6 [2, 4]	decrease in median percentage of soluble material recovered from the patch backing film compared to Cv6 [2, 4]	decrease in median percentage of soluble material recovered from the patch backing film compared to 4K [2, 5]	decrease in median percentage of soluble material recovered from the patch backing film compared to Av6 [2, 5]	decrease in median percentage of soluble material recovered from the patch backing film compared to Cv6 [2, 5]	decrease in median percentage of soluble material recovered from the patch backing film compared to 4K [2, 6]	decrease in median percentage of soluble material recovered from the patch backing film compared to Av6 [2, 6]	decrease in median percentage of soluble material recovered from the patch backing film compared to Cv6 [2, 6]	decrease in median percentage of soluble material recovered from the patch backing film compared to 4K [2, 7]	decrease in median percentage of soluble material recovered from the patch backing film compared to Av6 [2, 7]	decrease in median percentage of soluble material recovered from the patch backing film compared to Cv6 [2, 7]	decrease in median percentage of soluble material recovered from the patch backing film compared to 4K [2, 8]	decrease in median percentage of soluble material recovered from the patch backing film compared to Av6 [2, 8]	decrease in median percentage of soluble material recovered from the patch backing film compared to Cv6 [2, 8]	decrease in median percentage of soluble material recovered from the patch backing film compared to 4K [2, 9]	other results
H-PSGEGSFQPSQENPQ-NH2 [BB4a]	above 80%	14%	5%	12%	13%	8%	7%	14%	4%	0%	17%	10%	17%	17%	11%	10%	18%	14%	12%	14%	decrease in median percentage of soluble material recovered from the patch backing film compared to Av6 [2, 9]: 10%; decrease in median percentage of soluble material recovered from the patch backing film compared to Cv6 [2, 9]: 13%; decrease in median percentage of soluble material recovered from the patch backing film compared to 4K [2, 10]: 14%; decrease in median percentage of soluble material recovered from the patch backing film compared to Av6 [2, 10]: 1%; decrease in median percentage of soluble material recovered from the patch backing film compared to Cv6 [2, 10]: 14%; decrease in median percentage of soluble material recovered from the patch backing film compared to 4K [2, 11]: 15%; decrease in median percentage of soluble material recovered from the patch backing film compared to Av6 [2, 11]: 7%; decrease in median percentage of soluble material recovered from the patch backing film compared to Cv6 [2, 11]: 11%; decrease in median percentage of soluble material recovered from the patch backing film compared to 4K [2, 12]: 11%; decrease in median percentage of soluble material recovered from the patch backing film compared to Av6 [2, 12]: 11%; decrease in median percentage of soluble material recovered from the patch backing film compared to Cv6 [2, 12]: 9%; decrease in median percentage of soluble material recovered from the patch backing film compared to 4K [2, 13]: 12%; decrease in median percentage of soluble material recovered from the patch backing film compared to Av6 [2, 13]: 6%; decrease in median percentage of soluble material recovered from the patch backing film compared to Cv6 [2, 13]: 12%; decrease in median percentage of soluble material recovered from the patch backing film compared to 4K [2, 14]: 13%; decrease in median percentage of soluble material recovered from the patch backing film compared to Av6 [2, 14]: 9%; decrease in median percentage of soluble material recovered from the patch backing film compared to Cv6 [2, 14]: 2%
H-PQPEQPEQPFPEQPQ-NH2 [BB2a]	above 80%	16%	7%	14%	14%	8%	7%	20%	10%	6%	16%	9%	16%	20%	15%	14%	19%	15%	13%	15%	decrease in median percentage of soluble material recovered from the patch backing film compared to Av6 [2, 9]: 11%; decrease in median percentage of soluble material recovered from the patch backing film compared to Cv6 [2, 9]: 14%; decrease in median percentage of soluble material recovered from the patch backing film compared to 4K [2, 10]: 14%; decrease in median percentage of soluble material recovered from the patch backing film compared to Av6 [2, 10]: 1%; decrease in median percentage of soluble material recovered from the patch backing film compared to Cv6 [2, 10]: 14%; decrease in median percentage of soluble material recovered from the patch backing film compared to 4K [2, 11]: 18%; decrease in median percentage of soluble material recovered from the patch backing film compared to Av6 [2, 11]: 9%; decrease in median percentage of soluble material recovered from the patch backing film compared to Cv6 [2, 11]: 13%; decrease in median percentage of soluble material recovered from the patch backing film compared to 4K [2, 12]: 17%; decrease in median percentage of soluble material recovered from the patch backing film compared to Av6 [2, 12]: 17%; decrease in median percentage of soluble material recovered from the patch backing film compared to Cv6 [2, 12]: 15%; decrease in median percentage of soluble material recovered from the patch backing film compared to 4K [2, 13]: 16%; decrease in median percentage of soluble material recovered from the patch backing film compared to Av6 [2, 13]: 10%; decrease in median percentage of soluble material recovered from the patch backing film compared to Cv6 [2, 13]: 16%; decrease in median percentage of soluble material recovered from the patch backing film compared to 4K [2, 14]: 15%; decrease in median percentage of soluble material recovered from the patch backing film compared to Av6 [2, 14]: 10%; decrease in median percentage of soluble material recovered from the patch backing film compared to Cv6 [2, 14]: 4%
